{"source": "patent US20110237528A1", "about": "“COMPOSITIONS AND METHODS COMPRISING IMIDAZOLE AND TRIAZOLE DERIVATIVES” (INSTITUTE FOR ONEWORLD HEALTH, priority 2008, published 2011)", "molecular_target": "T1, CFTR channel in human colonic T84 cells (Homo sapiens, UniProt P13569)", "T1 construct": "host or cells: T84 human colonic cells", "T1 sequence (P13569 whole entry)": "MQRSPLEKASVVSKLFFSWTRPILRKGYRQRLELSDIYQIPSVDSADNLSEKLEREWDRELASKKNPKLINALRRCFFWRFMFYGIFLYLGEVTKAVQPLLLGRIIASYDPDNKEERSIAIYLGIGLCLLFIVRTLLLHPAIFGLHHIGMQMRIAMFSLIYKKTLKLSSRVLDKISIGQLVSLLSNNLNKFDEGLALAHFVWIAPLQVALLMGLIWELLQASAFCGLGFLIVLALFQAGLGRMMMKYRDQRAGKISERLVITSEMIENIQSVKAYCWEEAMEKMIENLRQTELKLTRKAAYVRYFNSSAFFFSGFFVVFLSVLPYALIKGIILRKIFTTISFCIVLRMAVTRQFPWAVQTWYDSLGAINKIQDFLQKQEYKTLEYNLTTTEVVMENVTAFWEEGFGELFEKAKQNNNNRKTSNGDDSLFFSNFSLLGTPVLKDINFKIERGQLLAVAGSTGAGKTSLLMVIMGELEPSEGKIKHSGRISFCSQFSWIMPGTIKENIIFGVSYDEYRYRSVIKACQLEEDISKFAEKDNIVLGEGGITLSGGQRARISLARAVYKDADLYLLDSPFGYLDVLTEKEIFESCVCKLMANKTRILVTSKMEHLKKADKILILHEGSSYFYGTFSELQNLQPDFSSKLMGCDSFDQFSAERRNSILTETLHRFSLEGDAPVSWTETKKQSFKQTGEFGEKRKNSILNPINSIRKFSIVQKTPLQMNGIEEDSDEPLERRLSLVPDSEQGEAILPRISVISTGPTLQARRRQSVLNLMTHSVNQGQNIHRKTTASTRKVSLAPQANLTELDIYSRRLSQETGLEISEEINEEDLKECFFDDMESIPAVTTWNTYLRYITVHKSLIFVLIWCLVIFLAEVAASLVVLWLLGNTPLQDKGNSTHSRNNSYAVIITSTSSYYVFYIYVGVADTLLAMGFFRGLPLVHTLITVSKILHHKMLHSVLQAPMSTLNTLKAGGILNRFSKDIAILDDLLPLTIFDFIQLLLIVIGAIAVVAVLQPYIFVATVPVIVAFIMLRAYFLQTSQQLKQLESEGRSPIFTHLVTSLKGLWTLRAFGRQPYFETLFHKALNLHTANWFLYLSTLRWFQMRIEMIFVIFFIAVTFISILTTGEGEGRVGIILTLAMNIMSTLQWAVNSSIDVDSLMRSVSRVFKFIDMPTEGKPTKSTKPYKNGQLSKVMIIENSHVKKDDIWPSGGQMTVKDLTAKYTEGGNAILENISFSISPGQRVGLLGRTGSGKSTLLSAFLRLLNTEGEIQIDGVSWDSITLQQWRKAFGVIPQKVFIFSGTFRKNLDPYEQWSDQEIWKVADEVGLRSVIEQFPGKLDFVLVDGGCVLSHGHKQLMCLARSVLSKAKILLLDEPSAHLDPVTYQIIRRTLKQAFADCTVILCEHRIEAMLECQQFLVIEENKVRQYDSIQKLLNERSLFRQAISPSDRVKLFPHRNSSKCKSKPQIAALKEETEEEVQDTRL", "experiment": "T84 assay (FLIPR membrane potential dye, forskolin/IBMX-stimulated)", "assay_type": "cell-based", "settings": "average of at least 2 runs unless marked n = 1", "experimental": "For example, Human colonic T84 cells can be acquired from the European Collection of Cell Cultures (ECACC) and grown in standard culture conditions as described by the supplier. On the day before assay 25,000 T84 cells per well are plated into standard black walled, clear bottom 384-well assay plates in standard growth medium consisting of DMEM:F12 with 10% FBS and incubated overnight. […] T84 cells are incubated with the FLIPR Red membrane potential dye for 45 minutes in the presence and absence of test compound before being transferred to a commercially available fluorescence imaging plate reader (FLIPR384, Molecular Devices Corporation). Fluorescence levels are monitored continuously every second for 150 seconds; after an initial 10 second baseline, CFTR channel activity is stimulated through the addition of 10 μM forskolin in the presence of 100 μM of the phosphodiesterase inhibitor iso-butyl-methylxanthine (IBMX). […] CFTR channel opening causes chloride ion efflux and subsequent depolarization of the cells, which is measured by an increase in fluorescence. CFTR inhibitor compounds prevent cell depolarization and the associated increase in fluorescence. […]", "data": [{"smiles": "O=C(NCc1ccc(Oc2cc(C(F)(F)F)cc(C(F)(F)F)c2)cc1)c1ncn(-c2cc(Cl)c(O)c(Cl)c2)n1", "note": "[Compound 62, N-(4-(3,5-bis(trifluoromethyl)phenoxy)benzyl)-1-(3,5-dichloro-4-hydroxyphenyl)-1H-1,2,4-triazole-3-carboxamide]", "values": [{"measurement": "IC50", "value": "≥ 50", "unit": "µM"}]}, {"smiles": "CN(C)c1cccc(Oc2ccc(CNC(=O)c3ncn(-c4cc(Cl)c(O)c(Cl)c4)n3)cc2)c1", "note": "[Compound 64, 1-(3,5-dichloro-4-hydroxyphenyl)-N-(4-(3-(dimethylamino)phenoxy)benzyl)-1H-1,2,4-triazole-3-carboxamide]", "values": [{"measurement": "IC50", "value": "≥ 50", "unit": "µM"}]}]}
